Here are results for five compounds from US8124360B2, “Use of a T1R2 nucleic acid sequence to identify tastants” (Givaudan S.A., priority 2006, dated 2012).

Molecules are shown by their SMILES. Residues, ends and D or L forms follow the SMILES beside them.

The target in assay [1] is T1, T1R2 monomer (Homo sapiens, UniProt Q8TE23).
T1 construct: expressed in transfected cells; host or cells: HEK293T cells stably expressing G16gust44
T1 sequence (Q8TE23 20-839): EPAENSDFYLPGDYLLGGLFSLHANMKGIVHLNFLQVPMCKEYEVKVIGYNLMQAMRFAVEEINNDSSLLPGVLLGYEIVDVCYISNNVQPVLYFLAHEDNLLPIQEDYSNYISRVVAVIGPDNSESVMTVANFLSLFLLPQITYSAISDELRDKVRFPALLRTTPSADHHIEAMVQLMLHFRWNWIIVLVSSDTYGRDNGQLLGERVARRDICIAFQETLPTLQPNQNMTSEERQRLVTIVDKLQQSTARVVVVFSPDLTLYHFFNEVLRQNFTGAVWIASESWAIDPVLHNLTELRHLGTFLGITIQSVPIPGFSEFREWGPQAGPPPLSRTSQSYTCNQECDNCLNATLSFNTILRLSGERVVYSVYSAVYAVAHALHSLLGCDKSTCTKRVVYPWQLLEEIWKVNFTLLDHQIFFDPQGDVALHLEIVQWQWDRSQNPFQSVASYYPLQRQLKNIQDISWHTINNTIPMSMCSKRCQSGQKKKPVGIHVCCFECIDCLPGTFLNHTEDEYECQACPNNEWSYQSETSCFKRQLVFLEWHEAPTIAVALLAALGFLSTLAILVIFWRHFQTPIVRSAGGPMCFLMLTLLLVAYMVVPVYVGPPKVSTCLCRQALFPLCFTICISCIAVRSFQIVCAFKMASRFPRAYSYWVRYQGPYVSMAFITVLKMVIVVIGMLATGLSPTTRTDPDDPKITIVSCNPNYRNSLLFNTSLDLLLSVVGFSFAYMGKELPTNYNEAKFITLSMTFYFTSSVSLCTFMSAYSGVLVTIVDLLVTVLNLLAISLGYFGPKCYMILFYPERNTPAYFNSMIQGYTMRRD
The assay is described as follows: Fluo-4 calcium assay, HEK293T/G16gust44 cells transiently transfected with T1R2 monomer. It is filed as cell-based. From the text: (§1) All examples use the human receptors.
(§2) HEK293 cells stably expressing G alpha 16-gustducin 44 and transfected as described in example 2, 3 or 4 were used as host cells.
(§3) To form a T1R2 vector construct, cDNA fragments containing the entire protein coding sequences for human T1R2 and T1R3 were isolated from a human fungiform cDNA library, fully sequenced and then subcloned into pcDNA3.1 (Invitrogen).

In the next assay the target is T2, T1R2/T1R3 dimer (Homo sapiens, UniProt Q7RTX0+Q8TE23).
T2 construct: expressed in transfected cells; host or cells: HEK293T cells stably expressing G16gust44
T2 sequence (Q8TE23 20-839): T1 sequence (Q8TE23 20-839)
T2 sequence (Q7RTX0 21-852): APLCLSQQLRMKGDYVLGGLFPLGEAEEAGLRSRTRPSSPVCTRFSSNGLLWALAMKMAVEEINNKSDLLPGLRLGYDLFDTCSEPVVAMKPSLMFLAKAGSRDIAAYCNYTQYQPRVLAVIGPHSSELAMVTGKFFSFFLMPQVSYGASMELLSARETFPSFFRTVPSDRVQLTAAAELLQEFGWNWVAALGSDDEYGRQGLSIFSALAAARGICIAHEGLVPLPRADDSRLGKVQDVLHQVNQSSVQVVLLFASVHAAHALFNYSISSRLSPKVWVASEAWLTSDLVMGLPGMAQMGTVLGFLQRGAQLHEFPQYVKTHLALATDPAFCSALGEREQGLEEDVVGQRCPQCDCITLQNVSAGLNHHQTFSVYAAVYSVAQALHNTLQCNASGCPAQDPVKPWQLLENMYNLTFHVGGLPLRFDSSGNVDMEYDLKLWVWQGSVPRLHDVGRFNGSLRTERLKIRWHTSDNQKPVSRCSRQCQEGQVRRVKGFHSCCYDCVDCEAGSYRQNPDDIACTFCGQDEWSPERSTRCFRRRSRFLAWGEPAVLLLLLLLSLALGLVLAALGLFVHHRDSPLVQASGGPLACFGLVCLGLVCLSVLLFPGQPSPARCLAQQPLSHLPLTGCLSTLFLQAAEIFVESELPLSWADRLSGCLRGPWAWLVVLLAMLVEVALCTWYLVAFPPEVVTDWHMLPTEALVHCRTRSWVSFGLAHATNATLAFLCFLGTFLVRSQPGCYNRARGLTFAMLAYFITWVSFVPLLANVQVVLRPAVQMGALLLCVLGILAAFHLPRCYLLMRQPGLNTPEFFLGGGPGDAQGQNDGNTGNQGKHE
Description: Fluo-4 calcium assay, HEK293T/G16gust44 cells transiently transfected with T1R2 and T1R3. It is filed as cell-based.
Excerpt: as §1, §2, §3

The next assay concerns the target T3, T1R3 monomer (Homo sapiens, UniProt Q7RTX0).
T3 construct: expressed in transfected cells; host or cells: HEK293T cells stably expressing G16gust44
T3 sequence (Q7RTX0 21-852): T2 sequence (Q7RTX0 21-852)
The assay is described as follows: Fluo-4 calcium assay, HEK293T/G16gust44 cells transiently transfected with T1R3 monomer. The following applies: 50 μM perillartine, mean of six replicates. Type of assay: cell-based.
Excerpt: as §1, §2, §3

The target of assay [2] is T1, T1R2 monomer. The assay is described as follows: Calcium flux assay (FLIPR), clonal cell lines stably expressing T1R2 and G16gust44. The settings on record: 50 μM perillartine. It is filed as cell-based. Here is the method:
as §1
A human T1R2/pcDNA4-Zeocin construct was linearized by digesting 5 ug with Pvu II and then purified using the Wizard DNA Clean-Up System (Promega). The DNA was transfected using the Lipofectamine 2000 reagent into cells that already stably express the G16gust44 G-protein (formed as described in WO 2004/055048).
(§4) For results, see table below. The signal average of the experiment is given, as well as the standard deviation (STD) in RFU. Two clones were analysed. Non-transfected cells expressing G16gust44 only serve as a general negative control.
(A change in cytosolic calcium serves as a functional read-out for many receptors and channels.)

The test system of assay [3] is cells expressing G16gust44 only. Description: Calcium flux assay (FLIPR), non-transfected cells expressing G16gust44 only. Type of assay: cell-based. The settings on record: 50 μM perillartine. The method, then: as §4
The test system of assay [4] is mock transfected cells expressing only the G16gust44 chimeric G-protein. The assay is described as follows: Fluo-4 calcium assay, mock transfected cells expressing only G16gust44 (negative control cells). Type of assay: cell-based, human. The settings on record: 50 μM perillartine, mean of six replicates.
Excerpt: as §2

Setting [5] is: 50 μM perillartine, mean of six replicates.

On to `N[C@H](Cc1c[nH]c2ccccc12)C(=O)O` [D-tryptophan], for which the “calcium signal compared with negative controls (mock transfected cells)” value at T1R2 monomer [1] was “not significantly above the signals observed for the negative controls”. Further, at T1R2/T1R3 dimer, the calcium signal intensity result is on record as “strong signals comparable to the signal intensity of perillartine”.

For the compound `COC(=O)[C@H](Cc1ccccc1)NC(=O)[C@@H](N)CC(=O)O` [aspartame] (H-Asp-Phe-OMe), on T1R2 monomer [1], the “calcium signal compared with negative controls (mock transfected cells)” value was “not significantly above the signals observed for the negative controls”. In addition, on T1R2/T1R3 dimer, the calcium signal intensity result is reported as “strong signals comparable to the signal intensity of perillartine”.

`C=C(C)[C@@H]1CC=C(/C=N/O)CC1` [perillartine]: the “SIGNAL AVERAGE (net increase in fluorescence over baseline)” value came to 165.6 RFU on T1R3 monomer, 944.9 RFU at T1R2 monomer [1] (setting [5]), 1279.6 RFU at T1R2/T1R3 dimer (setting [5]) and 353.5 RFU in assay [4]. Also, the Signal average at T1R2 monomer [2] (T1R2/G16gust44 CLONE 2) is given as 4336.25 RFU; at T1R2 monomer [2] (T1R2/G16gust44 CLONE 4), 5288.47 RFU; in assay [3], 368.71 RFU. The “perillartine-dependent signal relative to negative control cells expressing only G16gust44” value at T1R2 monomer [2] (clonal cell lines stably expressing T1R2 monomer) is on record as “at least 10 fold”.

As for `C=C1C[C@@]23CC[C@H]4[C@@](C)(CCC[C@@]4(C)C(=O)O[C@@H]4O[C@H](CO)[C@@H](O)[C@H](O)[C@H]4O)[C@@H]2CC[C@]1(O[C@@H]1O[C@H](CO)[C@@H](O)[C@H](O)[C@H]1O[C@@H]1O[C@H](CO)[C@@H](O)[C@H](O)[C@H]1O)C3` [stevioside], the “calcium signal compared with negative controls (mock transfected cells)” value at T1R2 monomer [1] is given as “not significantly above the signals observed for the negative controls”. Further, on T1R2/T1R3 dimer, the calcium signal intensity result is recorded as “strong signals comparable to the signal intensity of perillartine”.

Turning to `OC[C@H]1O[C@H](O[C@]2(CCl)O[C@H](CCl)[C@@H](O)[C@@H]2O)[C@H](O)[C@@H](O)[C@H]1Cl` [sucralose], at T1R2 monomer [1], the “calcium signal compared with negative controls (mock transfected cells)” value is “not significantly above the signals observed for the negative controls”. Moreover, the calcium signal intensity result on T1R2/T1R3 dimer is on record as “strong signals comparable to the signal intensity of perillartine”.
